Several values for one entry are separate records, joined by “and”; a condition that tells them apart may be missing. Equal entries are not always repeated. Entries after “also recorded” stand apart in the source; their conditions may differ. Where two headings read alike, the source gives them in different places.
Experiments:
[1] = tested on: HCT116 (colorectal carcinoma cell line); experiment: MTS cell viability assay, HCT116; assay type: cell-based, human; details: mean ± SEM
[2] = tested on: A2780 (ovarian carcinoma cell line); experiment: MTS cell viability assay, A2780; assay type: cell-based, human; details: mean ± SEM
HCT116-DoxR spheroids = experiment: MTS assay in 3D spheroids; assay type: cell-based, human; details: HCT116-DoxR spheroids 6- to 8-day-old, 48 h
HCT116-DoxR cells [3] = experiment: Cell internalization by ICP-AES; assay type: cell-based, human; details: 3 h exposure to 10x IC50, ICP-AES
HCT116-DoxR cells [4] = experiment: Alexa Fluor 488-annexin V/PI apoptosis assay, flow cytometry; assay type: cell-based, human; details: 48 h; for increase of percentage of apoptotic cells normalized to DMSO: IC50; for early apoptosis / late apoptosis / necrosis / percentage of apoptosis (total) / viable cells: complexes at IC50, cisplatin 5 μM, Dox 6 μM
BAX = experiment: Western blot, BAX expression; assay type: cell-based, human; details: HCT116-DoxR, 48 h; for BAX/BCL-2 ratio normalized to DMSO control: IC50; for BAX protein expression vs DMSO control: IC50, normalized to β-actin
BCL-2 = experiment: Western blot, BCL-2 expression; assay type: cell-based, human; details: HCT116-DoxR, 48 h, IC50, normalized to β-actin
cleaved PARP1 = experiment: Western blot, cleaved PARP1 expression; assay type: cell-based, human; details: HCT116-DoxR, 48 h, IC50
caspase-8 = experiment: Caspase-8 activity, IETD-pNA cleavage; assay type: cell-based, human; details: HCT116-DoxR, 48 h; complexes at IC50, cisplatin 5 μM
Method: Since caspase-8 is an initiator caspase of the extrinsic apoptotic pathway, its activity was evaluated after HCT116-DoxR cells were exposed to complexes 5 and 8 (Figure 8).
The chromogenic substrate IETD-pNA, which results from the conjugation between the peptide IETD (Ile-Glu-Thr-Asp) and the chromophore p-nitroanilide (pNA), is cleaved by caspase-8 and releases pNA, which can be detected by measuring absorbance at 400 nm.[99] Therefore, if complexes 5 and 8 induce cell death through the extrinsic apoptotic pathway, there is an increase in absorbance at 400 nm compared to the control sample, corresponding to an increase in caspase-8 activity that is translated into the cleavage of the substrate IETD-pNA (Figure 8).
(§1) Antibody; Cell Signalling Technology, USA).
(§2) Assay Kit (Abnova Corporation, Walnut, CA, USA).
(§3) vanadium complexes at its IC50 concentrations.
(§4) Cells were then incubated
(§5) Flow Cytometer (Life Technologies, Carlsbad, USA).
(§6) HCT116-DoxR cell line was cultivated

HCT116-DoxR cells [5] = experiment: ROS production, H2DCF-DA, flow cytometry; assay type: cell-based, human; details: 48 h, IC50
Method: Thus, the level of ROS present in HCT116-DoxR cells after their exposure to vanadium complexes was quantified (Figure 10). The probe 2′,7′-dichlorohydrofluorescein diacetate (H2DCF-DA), which diffuses into cells and is deacetylated by cellular esterases resulting in a nonfluorescent compound, was used. Inside the cell, this molecule is oxidized by ROS and then originates the fluorescent molecule 2′,7′-dichlorofluorescein (DCF) that can be detected by flow cytometry.[103]
(§7) finishing the 48 h period.
(§8) Attune® Cytometric software.
(§9) Butyl hydroperoxide) were used as controls.
(§10) Cells were later analysed
(§11) (double thymidine block).
(§12) After this, the pellet was resuspended in
Control solutions were also prepared, namely a […]

[6] = target: T1, BSA (bovine serum albumin) (Bos taurus, UniProt P02769); experiment: BSA binding, UV-vis and fluorescence spectroscopy; details: for BSA fluorescence with increasing complex concentrations: BSA 20 μM, complexes 10-100 μM, pH 7.0, 24 h, 37 °C; for interaction with BSA protein: UV-vis and fluorescence spectroscopy
T1 construct: I (1–195), II (196–383), and III (384–583)

fibroblasts = experiment: Cell migration (wound healing) assay; assay type: cell-based, human; details: 24 h, IC50
Method: In the wound healing assay, a region without cells is generated, being then exposed to the compounds, and the cell migration is analyzed after 24 h, to determine the cells’ ability to proliferate and refill the gap previously formed (Figure 14).[116]
as §7, §8, §9, §10, §11, §12
Control solutions were also prepared, namely a
DMSO only. […] The UV-Vis spectra were […]

[7] = tested on: chick chorioallantoic membrane; experiment: Ex ovo chick chorioallantoic membrane (CAM) assay, angiogenesis; assay type: in vivo, chicken; details: chick embryo CAM; for anti-/pro-angiogenic potential, newly formed blood vessels, 48 h: IC50, 48 h
From the text: The ex ovo CAM assay was used to evaluate the role of vanadium complexes in the process of angiogenesis. CAM is a chicken extraembryonic membrane and is often used to study the process of angiogenesis in vivo as it has a high density of blood and lymphatic vessels.[120] This assay consists of analyzing certain vascularized areas of the chorioallantoic membrane of a chicken embryo. Initially, o-rings are placed covering those membrane vascularized areas being then exposed to the complexes. Pictures are then taken at 0, 24, and 48 h after exposure to the complexes and the number of blood vessels present at each hour are counted and compared. The results can be observed in Figure 15.
Ex-ovo Chick Chorioallantoic Membrane (CAM) assay
The ex-ovo chorioallantoic membrane (CAM) assay was performed in order to evaluate the angiogenic potential of vanadium complexes, as already described in literature11–13. Firstly, chicken embryos were […]
concentration of each complex dissolved in PBS 1x was placed in the centre of O-rings. Beside each complex, DMSO 0.1% (v/v) was used as a control and complex distribution in chicken embryos was always performed in a different order. The embryos were incubated for 48 h at 37 °C and images were […]
Newly formed blood vessels were later manually counted, via ImageJ software.
The ex-ovo CAM assay fulfils the Directive 2010/63/ EU of the European Parliament for protection of animal models for scientific purposes.
All data are presented as Mean ± SEM from at least two independent experiments unless otherwise specified. One-way ANOVA or Student’s t-test were used to determine statistical significance (p < 0.05) using the GraphPad Prism 8 software (GraphPad Software, San Diego, CA, USA).

[8] = Stability and solubility in RPMI culture medium, UV-vis; assay type: physicochemical; details: UV-vis at 0, 24, 48 h
[9] = tested on: HCT116-DoxR (doxorubicin-resistant colorectal carcinoma cell line); experiment: MTS cell viability assay, HCT116-DoxR;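 also: MTS colorimetric quantification of viable cells, with loss of viability tracked as complex concentration rises, in DMEM-grown HCT116-DoxR, a line whose resistance involves P-glycoprotein efflux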
Method: (§13) To assess the cytotoxicity of vanadium complexes in tumor and healthy cells, the MTS assay, a colorimetric method that allows the quantification of viable cells present in solution,[71] was performed.
Cell culture and maintenance
(§14) The A2780 cancer cell line (ovarian carcinoma) was purchased from Sigma-Aldrich (Madrid, Spain)
(§15) while HCT116 cancer cell line (colorectal carcinoma) and the normal human primary dermal
(§16) fibroblasts were obtained from American Type Culture Collection (ATCC®, Manassas, VA, USA).
(§17) HCT116 Dox-resistant cell line (HCT116-DoxR) was derived from HCT116 parental cells, as
(§18) All cells were cultured in Dulbecco’s modified Eagle medium (DMEM), except the A2780 cell line
(§19) which was cultured in RPMI (Roswell Park Memorial Institute) medium. Both media were
(§20) supplemented with 10% (v/v) fetal bovine serum (FBS) and 1% (v/v) of a Pen/Strep
(§21) (Penicillin/Streptomycin) solution. HCT116-DoxR cell medium was additionally supplemented with
(§22) All media and supplements were purchased from Thermo Fischer Scientific (Waltham, Massachusetts, USA).
(§23) (SANYO CO2 Incubator, Electric Biomedical Co., Osaka, Japan).
(§24) HCT116, HCT116-DoxR and A2780 cancer cell lines and normal human primary fibroblasts were
(§25) used in cellular viability assays. Cells were seeded in a density of 0.75×10^5 cells/mL into 96 well-
(§26) After the 24 h of incubation, complexes were
(§27) weight and immediately solubilized in 100% (v/v) DMSO and then, diluted for the final concentration
(§28) with cell culture medium. The medium in each 96 well-plates will be replaced by fresh medium
(§29) containing each vanadium complex (concentrations ranging from 0.01 µM to 50 µM). Culture medium
(§30) with 0.1% (v/v) DMSO and 0.4 µM Dox were used as negative and positive controls, respectively.

[10] = tested on: normal human primary dermal fibroblasts; experiment: MTS cell viability assay, fibroblasts; details: read-out: IC50 fibroblasts; 48 h of exposure, MTS, mean ± SEM
Method: as §13
Cell culture and maintenance
as §14, §15, §16, §17, §18, §19, §20, §21, §22, §23, §24, §25, §26, §27, §28, §29, §30

HCT116-DoxR cells [11] = experiment: Cell cycle progression, PI, flow cytometry; details: HCT116-DoxR, 3, 9, 24, 32 h; complexes at IC50, cisplatin 5 μM, Dox 6 μM
HCT116-DoxR cells [12] = experiment: Autophagy induction, Green Detection Reagent, flow cytometry; details: 48 h, complexes at IC50, cisplatin 5 μM, Dox 6 μM
[13] = n-octanol/PBS buffer partition coefficient, shake-flask, UV-vis; details: room temperature
Method: The lipophilicity of V(IV) complexes was investigated using the classical shake-flash method at room temperature in the two-phase system of immiscible solvents n-octanol/PBS buffer.[69],[70] The transfer of V(IV) compounds from the aqueous environment to the organic phase was monitored by UV–vis spectroscopy.
The n-octanol/PBS buffer partition coefficients (logP) were determined by shake-flash approach, and
the transfer of V(IV) compounds from the aqueous environment to the organic phase was monitored
by UV-Vis spectroscopy5,6. Solutions of 1–10 of concentrations in the range 10-100 M were prepared
in PBS buffer saturated with n-octanol from the freshly-prepared stock solution in DMSO (5mM or 50
mM), and their UV-Vis spectra were recorded. The solution of 1–10 in aqueous buffer (3 ml) were
mixed with n-octanol saturated with pH 7.4 aqueous buffer (3 ml), and the obtained mixtures were
stirred in a mechanical shaker for 30 min. The mixtures were allowed to stand at room temperature for
24 h, and after this time, the aqueous phases were separated, and the concentrations of 1–10 were
determined by measuring their UV-Vis spectra. For each complex, the highest energy absorption band was taken into consideration to determine the sample concentration.

[14] = tested on: HCT116-DoxR (doxorubicin-resistant colorectal carcinoma cell line); details: doxorubicin in resistant line; cited from earlier work
HCT116-DoxR cells [15] = experiment: Mitochondrial membrane potential, JC-1, flow cytometry; assay type: cell-based, human; details: 48 h, complexes at IC50, cisplatin 5 μM, Dox 6 μM
From the text: The use of the fluorescent probe JC-1 (5,5,6,6′-tetrachloro-1,1′,3,3′ tetraethylbenzimidazolcarbocyanine iodide) allows the evaluation of ΔΨm, as the aggregation of the probe changes whether the mitochondrial membrane is hyperpolarized or depolarized.[95],[96] In healthy cells with high mitochondrial potential, JC-1 enters and accumulates inside mitochondria, where it forms complexes known as J-aggregates, emitting red fluorescence. However, in cells with a loss of ΔΨm, JC-1 is unable to remain in the mitochondria and exits to the cytoplasm, accumulating in its monomeric form and emitting green fluorescence. Thus, the ratio of the red/green fluorescence intensities can be used to indicate polarization (ratio > 1) or depolarization (ratio < 1) of the mitochondrial membrane (Figure 7).[94],[95]
as §1, §2, §3, §4, §5, §6

[16] = read-out: IC50 2D, HCT116-DoxR 2D culture, 48 h
[17] = read-out: IC50 HCT116-DoxR, 48 h of exposure, MTS, mean ± SEM

T1 sequence (P02769 25-607): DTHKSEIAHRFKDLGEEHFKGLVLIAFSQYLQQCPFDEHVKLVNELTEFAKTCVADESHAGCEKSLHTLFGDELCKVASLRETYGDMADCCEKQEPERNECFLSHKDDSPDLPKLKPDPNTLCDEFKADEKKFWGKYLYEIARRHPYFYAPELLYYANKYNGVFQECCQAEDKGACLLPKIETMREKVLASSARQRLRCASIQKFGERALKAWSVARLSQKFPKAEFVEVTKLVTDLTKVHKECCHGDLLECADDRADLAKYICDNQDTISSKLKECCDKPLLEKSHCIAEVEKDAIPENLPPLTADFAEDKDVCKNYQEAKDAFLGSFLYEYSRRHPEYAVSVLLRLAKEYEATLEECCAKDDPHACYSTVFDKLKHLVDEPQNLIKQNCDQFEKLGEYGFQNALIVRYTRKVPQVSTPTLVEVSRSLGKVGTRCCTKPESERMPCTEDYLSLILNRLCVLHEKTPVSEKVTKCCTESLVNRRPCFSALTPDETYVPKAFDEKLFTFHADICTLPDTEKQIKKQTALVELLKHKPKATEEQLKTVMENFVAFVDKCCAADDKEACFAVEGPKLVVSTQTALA

Row | Structure (SMILES) | IC50 ([1]; 48 h of exposure) [µM] | IC50 ([2]; 48 h of exposure) [µM] | IC50 (HCT116-DoxR spheroids) [µM] | Concentration in cells (HCT116-DoxR cells [3]) [µM] | increase of percentage of apoptotic cells normalized to DMSO (HCT116-DoxR cells [4]) [fold] | early apoptosis (HCT116-DoxR cells [4]) [%] | late apoptosis (HCT116-DoxR cells [4]) [%] | necrosis (HCT116-DoxR cells [4]) [%] | percentage of apoptosis (total) (HCT116-DoxR cells [4]) | viable cells (HCT116-DoxR cells [4]) [%] | caspase-8 activity vs 0.1% DMSO (caspase-8) | ROS production, increase over the DMSO control (HCT116-DoxR cells [5]) [fold] | BSA fluorescence with increasing complex concentrations [6] | interaction with BSA protein [6] | cell migration (wound remission) (fibroblasts) | anti-/pro-angiogenic potential, newly formed blood vessels, 48 h [7] | stability in RPMI culture medium [8] | IC50 [9, 16] [µM] | IC50 [9, 17] [µM] | increase of autophagic vesicles over the control (HCT116-DoxR cells [12]) [fold] | also measured
1 | COc1ccnc2c1ccc1c(OC)ccnc12.O=C1[O][V](=[O])[O]C(=O)c2cccc1n2 [complex 5, [VO(dipic)(4,7-(CH3O)2-phen)]] | 1.8 ± 0.04 | 1.3 ± 0.01 | 3.5 ± 0.2 | 1.590 | 2.5 | 59.4 ± 3.6 | 11.5 ± 5.0 | 0.8 ± 0.6 | about 70% | 28.3 ± 3.5 | higher level of caspase-8 | 2.5 | high decrease in BSA fluorescence | capable of interacting | do not promote cell migration | no anti-/pro-angiogenic potential | no structural changes | 0.2 ± 0.1 | 0.2 ± 0.1 | ~2.3 | Internalized percentage (HCT116-DoxR cells [3]): 98.55% and ~100%; BAX/BCL-2 ratio normalized to DMSO control (BAX): ~1; BAX protein expression vs DMSO control (BAX): increased expression; BCL-2 protein expression vs DMSO control (BCL-2): increased expression; increase in expression of cleaved PARP1 vs 0.1% DMSO (cleaved PARP1): 5 fold; IC50 [10]: 3.1 ± 0.07 µM; cell cycle arrest / cytostatic effect (HCT116-DoxR cells [11]): no cell cycle arrest; log P [13]: 0.55
2 | O=C1[O][V](=[O])[O]C(=O)c2cccc1n2.c1cnc2c(c1)ccc1cccnc12 [complex 8, [VO(dipic)(phen)]] | 3.7 ± 0.01 | 2.1 ± 0.03 | 11.7 ± 0.62 | 6.705 | 1.7 | 44.8 ± 6.2 | 4.5 ± 2.1 | 0.9 ± 0.6 | about 50% | 49.8 ± 6.0 | higher level of caspase-8 | 2.4 | high decrease in BSA fluorescence | capable of interacting | do not promote cell migration | no anti-/pro-angiogenic potential | no spectral changes over time | 1.3 ± 0.04 | 1.3 ± 0.04 | ~2.3 | IC50 [10]: 8.6 ± 0.02 µM; log P [13]: 0.40
3 | COc1cccc2c1C(=O)c1c(O)c3c(c(O)c1C2=O)C[C@@](O)(C(=O)CO)C[C@@H]3O[C@H]1C[C@H](N)[C@H](O)[C@H](C)O1 [doxorubicin, reference compound] |  |  |  |  |  | 19.0 ± 4.4 |  | 11.2 ± 2.0 | 34% | 54.9 ± 4.3 |  |  |  |  |  |  |  |  |  | ~2.3 | IC50 ([1]; Homo sapiens, HCT-116, 48 h of exposure): 0.5 ± 0.1 µM; IC50 ([2]; Homo sapiens, A2780, 48 h of exposure): 0.1 ± 0.04 µM; necrosis (HCT116-DoxR cells [4]; listed as Dox): 11%; viable cells (HCT116-DoxR cells [4]; listed as Dox): about 55%; IC50 [14]: > 6 µM; cell cycle arrest / cytostatic effect (HCT116-DoxR cells [11]): did not occur
4 | O=C1[O][V](=[O])[O]C(=O)c2cccc1n2.c1ccc(-c2ccnc3c2ccc2c(-c4ccccc4)ccnc23)cc1 [complex 6, [VO(dipic)(4,7-Ph2-phen)]] | 0.9 ± 0.03 | 0.2 ± 0.09 | 3.1 ± 0.42 | 1.672 | 2.5 | 57.7 ± 5.8 | 13.4 ± 5.9 | 1.2 ± 0.9 | about 70% | 27.7 ± 7.9 | not detected | 2.6 | high decrease in BSA fluorescence | capable of interacting | do not promote cell migration | no longer present; also recorded: no anti-/pro-angiogenic potential | no spectral changes over time | 0.2 ± 0.05 | 0.2 ± 0.05 | ~2.3 | Internalized percentage (HCT116-DoxR cells [3]): 98.32% and ~100%; BAX/BCL-2 ratio normalized to DMSO control (BAX): ~3; BAX protein expression vs DMSO control (BAX): increase; BCL-2 protein expression vs DMSO control (BCL-2): decrease; increase in expression of cleaved PARP1 vs 0.1% DMSO (cleaved PARP1): 8 fold; JC-1 red/green fluorescence intensity ratio normalized to DMSO (HCT116-DoxR cells [15]): ~0.69; anti-angiogenic potential, newly formed blood vessels, 24 h ([7]; IC50, 24 h): some anti-angiogenic potential; solubility in RPMI culture medium over time [8]: loss of solubility over time; IC50 [10]: 4 ± 0.05 µM; cell cycle arrest / cytostatic effect (HCT116-DoxR cells [11]): no cell cycle arrest; log P [13]: 0.57

From article PMC10350923, “In Vitro and In Vivo Biological Activities of Dipicolinate Oxovanadium(IV) Complexes” (Journal of Medicinal Chemistry, 2023)
